Experimental data taken from patent US10317405B2, “Methods of detecting Akt3 and administering Ax1 inhibitor” (BERGENBIO ASA, priority 2012, dated 2019).

How the values were obtained:
Akt3 [1] = assay: Quantification of nuclear Akt3 immunofluorescence in mammary epithelial cells (HMEC); type: cell-based, human; details: 600 nM BGB324 (Axl TKI), 1 uM imatinib (cKit TKI), versus vehicle (DMSO), *P<0.05
Description: Culturing of MDA-MB-231 cells was as described in Example 3. Primary human mammary epithelial cells (HMEC) were isolated as described (Garbe J C, Pepin F, Pelissier F A, Sputova K, Fridriksdottir A J, Guo D E, Villadsen R, Park M, Petersen O W, Borowsky A D, Stampfer M R, Labarge M A. Accumulation of multipotent progenitors with a basal differentiation bias during aging of human mammary epithelia. Cancer Res. 2012 Jul. 15; 72(14):3687-701) Localization of Akt3 (anti-Akt3-FITC, top panels) in MDA-MB-231 and primary human mammary epithelial cells (HMEC) as in Example 17. Nucleus was stained by DAPI (lower panels). Bar: 50 micron

MCF10A cells [2] = assay: Mesenchymal phenotype in 2D growth and invasive growth in 3D Matrigel of transduced MCF10A cells treated with Akt inhibitors; type: cell-based, human; details: inhibitor 10 μM, 12 hours
Method: (§1) MCF10A cells were cultured and transduced with retroviral constructs expressing myrAkt1, MyrAkt3 or Slug as described in FIGS. 1 and 3. The cells were treated with Akt inhibitors LY294002 (10 μM, Cell Signaling Technology, Cat. #9901) and Akt VIII (10 μM, Merck, Cat. #124018) for 12 hours as indicated. Cells were then either visualized at indicated magnification by phase-contrast microscopy, or seeded for invasive growth in 3D Matrigel as described in Example 3.

MCF10A cells [3] = assay: Immunoblot of EMT markers (N-cadherin, vimentin, E-cadherin) in transduced MCF10A cells treated with Akt inhibitor; type: cell-based, human; details: inhibitor 10 μM, 12 hours
Method: as §1
(§2) MCF10A cells were cultured and transduced with retroviral constructs expressing myrAkt1, MyrAkt3 or Slug as described in FIGS. 1 and 3. The cells were treated with Akt inhibitor as described in FIG. 6. SDS/PAGE, immunoblotting and antibodies as described in Examples 1 and 4.

Akt = assay: Immunoblot of Akt activation (pAkt) in transduced MCF10A cells treated with Akt inhibitor; type: cell-based, human; details: inhibitor 10 μM, 12 hours
Method: as §1, §2

Akt3 [4] = assay: SureFire assay detecting activated (phosphorylated) Akt3 in cells; type: cell-based; details: 10 nM insulin for 10 minutes
Method: A SureFire assay was used to specifically detect activated (phosphorylated) Akt3 in WM115, MCF7 and LNCaP cells. Briefly cells were lysated, and antibodies recognizing phosphorylated Akt (p473) and Akt3 were coupled to acceptor and donor beads as described by the manufacturer (PerkinElmer). Cells were either unstimulated or stimulated with 10 nM insulin for 10 minutes to activate Akt.

Nc1nc(Nc2ccc3c(c2)CC[C@@H](N2CCCC2)CC3)nn1-c1cc2c(nn1)-c1ccccc1CCC2 [BGB324, 1-(6,7-dihydro-5H-benzo[6,7]cyclohepta[1,2-c]pyridazin-3-yl)-N3-((7-(S)-pyrrolidin-1-yl)-6,7,8,9-tetrahydro-5H-benzo[7]annulene-2-yl)-1H-1,2,4-triazole-3,5-diamine]
Akt3 nuclear localization (Akt3 [1]): inhibit

O=c1[nH]c2ccccc2n1C1CCN(Cc2ccc(-c3nc4cc5nc[nH]c5cc4nc3-c3ccccc3)cc2)CC1 [AKT VIII]
mesenchymal phenotype induced by Akt3 (MCF10A cells [2]; MCF10A cells expressing MyrAkt3): inhibit
mesenchymal/invasive phenotype induced by Slug in 2D and 3D growth (MCF10A cells [2]; MCF10A cells expressing Slug, 2D culture and 3D Matrigel): inhibit
mesenchymal marker N-cadherin expression (MCF10A cells [3]): significant reduction
mesenchymal marker vimentin expression (MCF10A cells [3]): significant reduction
re-expression of the epithelial marker E-cadherin (MCF10A cells [3]): Neither inhibitor led to re-expression
reversal of the mesenchymal phenotype / inhibition of EMT (MCF10A cells [3]): partially reverse
Akt activation (pAkt) (Akt): fully inhibit

insulin: stimulus used to activate Akt in the SureFire assay
Akt3 activity (phosphorylation) signal (Akt3 [4]; LNCaP prostate cells): no signal
Akt3 activity (phosphorylation) signal (Akt3 [4]; MCF7 breast epithelial cells): no signal
Akt3 activity (phosphorylation) (Akt3 [4]; WM115 melanoma cells): significantly induce
